Experimental data: patent US8227428B2, “Anti-infammatory macrolide” (Glaxo Group Limited, priority 2009, dated 2012)

Tests used:
[1] = In vitro stability in human whole blood; format: in vitro ADME; details: 37° C., after 24 hours
Description: (§1) An in vitro stability study in human whole blood and plasma is carried out over 24 hours at 37° C. Drug-free freshly collected human blood (CPD—citrate-phosphate-dextrose is used for all blood collections as anticoagulant) and plasma are spiked with a previously prepared standard solution of test compound to a final concentration of 2000 ng/mL. For each compound blood and plasma are spiked in duplicate and incubated for 24 hours. Two separate aliquots of blood or plasma (50 μL) are sampled from each incubation mixture at 0, 15, 30, 60, 120, 240 and 1440 minutes. All aliquots are mixed with an equal volume of water (50 μL) and extracted with 300 μL of acetonitrile/methanol (2:1) containing internal standard (roxithromycin). The samples are then vortexed, centrifuged and analysed by LC/MS/MS (MRM mode). Results are expressed as the percentage of compound remaining, expressed as the ratio of analyte/internal standard.

[2] = In vitro stability in human plasma; format: in vitro ADME; details: 37° C., after 24 hours
Description: as §1

[3] = Stability in buffer solutions pH 2 to pH 8 at 25° C.; format: physicochemical
Description: Stability in buffer solutions pH 2 to pH 8 at 25° C., and in bio-relevant media (SGF pH 1.6, Fasted SIF pH 6.5 and Fed SIF pH 5.0) at 37° C., during 24 hours is monitored. The samples are analysed by LC/MS.
Buffer Solutions and Physiologically Relevant Media Used in Stability Assay:
LC Conditions: Instrument HP1100
Column: Waters XBridge C18, 2.1×50 mm, 3.5 μm
Guard column: Waters XBridge C18, 2.1×10 mm, 3.5 μm
• A) 0.1% HCOOH/H2O • B) 0.1% HCOOH/CH3CN Gradient Timetable: […]
Flow: 0.3 mL/min Column temp.: 25° C. Sample temp.: 25° C. (for stability assay in buffer solutions) • 37° C. (for stability assay in bio-relevant media) Injector volume: 3 μL (without injection program) MS Conditions: Instrument HP MS API-ES, positive ion mode Mass Range: 150-1500 Fragmentor: 100 Gain: 1.0 Treshold: 150 Step size: 0.20 Gas Temperature: 350° C. Drying Gas Flow: 13 L/min Nebulizer Pressure: 35 psig Capillary Voltage Positive 4000 V • Negative 4000 V Sample Preparation: a) For Stability Assay in Buffer Solutions
Compounds are dissolved in CH3CN to produce a 1 mg/mL stock solution. The stock solution is diluted to a concentration of 0.2 mg/mL (1 mL solution in 4 mL buffer) with appropriate buffer to produce a working solution.
Each solution at each pH is then dispatched into vials that are sealed and stored at room temperature in order to be analyzed at the proper time point. Before analysis, pH values of prepared sample solutions are checked and adjusted if neccessary.

CC[C@H]1OC(=O)[C@H](C)[C@@H](O[C@H]2C[C@@](C)(OC)[C@@H](OC(=O)CCN(CC)CC)[C@H](C)O2)[C@H](C)[C@@H](O[C@@H]2O[C@H](C)C[C@H](NC)[C@H]2O)[C@](C)(OC)C[C@@H](C)C(=O)N[C@H](C)[C@@H](O)[C@]1(C)O [Example 2, 3′-N-Demethyl-4″-O-(3-diethylaminopropionoyl)-6-O-methyl-9a-aza-9a-homoerythromycin A]
compound remaining in whole blood [1]: around 41%
compound remaining in plasma [2]: less than 2%
stability in buffers at pH 7 and at pH 8 ([3]; 25° C., during 24 hours): showed instability
Percentage (Area %) of the compound observed in buffers ([3]; pH 2, 25° C., 2 h): 100 Area %
Percentage (Area %) of the compound observed in buffers ([3]; pH 2, 25° C., 4 h): 100 Area %
Percentage (Area %) of the compound observed in buffers ([3]; pH 2, 25° C., 6 h): 98.7 Area %
Percentage (Area %) of the compound observed in buffers ([3]; pH 2, 25° C., 8 h): 98.5 Area %
Percentage (Area %) of the compound observed in buffers ([3]; pH 2, 25° C., 12 h): 97.6 Area %
Percentage (Area %) of the compound observed in buffers ([3]; pH 2, 25° C., 14 h): 97.6 Area %
Percentage (Area %) of the compound observed in buffers ([3]; pH 2, 25° C., 18 h): 97.5 Area %
Percentage (Area %) of the compound observed in buffers ([3]; pH 2, 25° C., 20 h): 97.3 Area %
Percentage (Area %) of the compound observed in buffers ([3]; pH 2, 25° C., 22 h): 97.2 Area %
Percentage (Area %) of the compound observed in buffers ([3]; pH 2, 25° C., 24 h): 97.2 Area %
Percentage (Area %) of the compound observed in buffers ([3]; pH 2, 25° C., Initial): 100 Area %
Percentage (Area %) of the compound observed in buffers ([3]; pH 3, 25° C., 2 h): 100 Area %
Percentage (Area %) of the compound observed in buffers ([3]; pH 3, 25° C., 4 h): 100 Area %
Percentage (Area %) of the compound observed in buffers ([3]; pH 3, 25° C., 6 h): 98.8 Area %
Percentage (Area %) of the compound observed in buffers ([3]; pH 3, 25° C., 8 h): 97.5 Area %
Percentage (Area %) of the compound observed in buffers ([3]; pH 3, 25° C., 12 h): 97.3 Area %
Percentage (Area %) of the compound observed in buffers ([3]; pH 3, 25° C., 14 h): 97.3 Area %
Percentage (Area %) of the compound observed in buffers ([3]; pH 3, 25° C., 18 h): 97.0 Area %
Percentage (Area %) of the compound observed in buffers ([3]; pH 3, 25° C., 20 h): 97.0 Area %
Percentage (Area %) of the compound observed in buffers ([3]; pH 3, 25° C., 22 h): 97.0 Area %
Percentage (Area %) of the compound observed in buffers ([3]; pH 3, 25° C., 24 h): 96.9 Area %
Percentage (Area %) of the compound observed in buffers ([3]; pH 3, 25° C., Initial): 100 Area %
Percentage (Area %) of the compound observed in buffers ([3]; pH 4, 25° C., 2 h): 100 Area %
Percentage (Area %) of the compound observed in buffers ([3]; pH 4, 25° C., 4 h): 100 Area %
Percentage (Area %) of the compound observed in buffers ([3]; pH 4, 25° C., 6 h): 100 Area %
Percentage (Area %) of the compound observed in buffers ([3]; pH 4, 25° C., 8 h): 99.3 Area %
Percentage (Area %) of the compound observed in buffers ([3]; pH 4, 25° C., 12 h): 99.0 Area %
Percentage (Area %) of the compound observed in buffers ([3]; pH 4, 25° C., 14 h): 98.5 Area %
Percentage (Area %) of the compound observed in buffers ([3]; pH 4, 25° C., 18 h): 98.5 Area %
Percentage (Area %) of the compound observed in buffers ([3]; pH 4, 25° C., 20 h): 98.4 Area %
Percentage (Area %) of the compound observed in buffers ([3]; pH 4, 25° C., 22 h): 98.4 Area %
Percentage (Area %) of the compound observed in buffers ([3]; pH 4, 25° C., 24 h): 98.3 Area %
Percentage (Area %) of the compound observed in buffers ([3]; pH 4, 25° C., Initial): 100 Area %
Percentage (Area %) of the compound observed in buffers ([3]; pH 5, 25° C., 2 h): 98.5 Area %
Percentage (Area %) of the compound observed in buffers ([3]; pH 5, 25° C., 4 h): 98.5 Area %
Percentage (Area %) of the compound observed in buffers ([3]; pH 5, 25° C., 6 h): 98.4 Area %
Percentage (Area %) of the compound observed in buffers ([3]; pH 5, 25° C., 8 h): 98.4 Area %
Percentage (Area %) of the compound observed in buffers ([3]; pH 5, 25° C., 12 h): 98.4 Area %
Percentage (Area %) of the compound observed in buffers ([3]; pH 5, 25° C., 14 h): 98.3 Area %
Percentage (Area %) of the compound observed in buffers ([3]; pH 5, 25° C., 18 h): 98.3 Area %
Percentage (Area %) of the compound observed in buffers ([3]; pH 5, 25° C., 20 h): 98.3 Area %
Percentage (Area %) of the compound observed in buffers ([3]; pH 5, 25° C., 22 h): 98.3 Area %
Percentage (Area %) of the compound observed in buffers ([3]; pH 5, 25° C., 24 h): 98.0 Area %
Percentage (Area %) of the compound observed in buffers ([3]; pH 5, 25° C., Initial): 100 Area %
Percentage (Area %) of the compound observed in buffers ([3]; pH 6, 25° C., 2 h): 99.6 Area %
Percentage (Area %) of the compound observed in buffers ([3]; pH 6, 25° C., 4 h): 99.4 Area %
Percentage (Area %) of the compound observed in buffers ([3]; pH 6, 25° C., 6 h): 99.0 Area %
Percentage (Area %) of the compound observed in buffers ([3]; pH 6, 25° C., 8 h): 99.0 Area %
Percentage (Area %) of the compound observed in buffers ([3]; pH 6, 25° C., 12 h): 99.0 Area %
Percentage (Area %) of the compound observed in buffers ([3]; pH 6, 25° C., 14 h): 98.5 Area %
Percentage (Area %) of the compound observed in buffers ([3]; pH 6, 25° C., 18 h): 98.3 Area %
Percentage (Area %) of the compound observed in buffers ([3]; pH 6, 25° C., 20 h): 98.2 Area %
Percentage (Area %) of the compound observed in buffers ([3]; pH 6, 25° C., 22 h): 98.2 Area %
Percentage (Area %) of the compound observed in buffers ([3]; pH 6, 25° C., 24 h): 98.1 Area %
Percentage (Area %) of the compound observed in buffers ([3]; pH 6, 25° C., Initial): 100 Area %
Percentage (Area %) of the compound observed in buffers ([3]; pH 7, 25° C., 2 h): 97.8 Area %
Percentage (Area %) of the compound observed in buffers ([3]; pH 7, 25° C., 4 h): 93.4 Area %
Percentage (Area %) of the compound observed in buffers ([3]; pH 7, 25° C., 6 h): 89.8 Area %
Percentage (Area %) of the compound observed in buffers ([3]; pH 7, 25° C., 8 h): 89.3 Area %
Percentage (Area %) of the compound observed in buffers ([3]; pH 7, 25° C., 12 h): 85.1 Area %
Percentage (Area %) of the compound observed in buffers ([3]; pH 7, 25° C., 14 h): 84.3 Area %
Percentage (Area %) of the compound observed in buffers ([3]; pH 7, 25° C., 18 h): 84.0 Area %
Percentage (Area %) of the compound observed in buffers ([3]; pH 7, 25° C., 20 h): 81.3 Area %
Percentage (Area %) of the compound observed in buffers ([3]; pH 7, 25° C., 22 h): 79.9 Area %
Percentage (Area %) of the compound observed in buffers ([3]; pH 7, 25° C., 24 h): 78.4 Area %
Percentage (Area %) of the compound observed in buffers ([3]; pH 7, 25° C., Initial): 100 Area %
Percentage (Area %) of the compound observed in buffers ([3]; pH 8, 25° C., 2 h): 92.0 Area %
Percentage (Area %) of the compound observed in buffers ([3]; pH 8, 25° C., 4 h): 81.7 Area %
Percentage (Area %) of the compound observed in buffers ([3]; pH 8, 25° C., 6 h): 77.7 Area %
Percentage (Area %) of the compound observed in buffers ([3]; pH 8, 25° C., 8 h): 71.7 Area %
Percentage (Area %) of the compound observed in buffers ([3]; pH 8, 25° C., 12 h): 63.4 Area %
Percentage (Area %) of the compound observed in buffers ([3]; pH 8, 25° C., 14 h): 60.2 Area %
Percentage (Area %) of the compound observed in buffers ([3]; pH 8, 25° C., 18 h): 54.2 Area %
Percentage (Area %) of the compound observed in buffers ([3]; pH 8, 25° C., 20 h): 51.1 Area %
Percentage (Area %) of the compound observed in buffers ([3]; pH 8, 25° C., 22 h): 47.1 Area %
Percentage (Area %) of the compound observed in buffers ([3]; pH 8, 25° C., 24 h): 44.6 Area %
Percentage (Area %) of the compound observed in buffers ([3]; pH 8, 25° C., Initial): 100 Area %
